What all share (assay type): cell-based
One test relates to LOXL1. The experiment in a line: Real-time and western blot of LOXL1 mRNA/protein and elastin dimer in human fibroblast lines HF1 and HF2. The following applies: for expression of LOXL1 (mRNA and protein): 4 μM emodin, overnight; for formation of elastin dimer intermediate: different emodin concentrations. The method, then: Two human fibroblast cell lines integrating PLOXL1-ZsGreen components (HF1 and HF2) are inoculated at a density of 20%, incubated overnight (37° C., 5% CO2). […] After cultured overnight, Real-time and western blot are used to detect the mRNA level and protein level in LOXL1. Wherein, the one added DMSO solvent only works as the control, and is normalized to 1, data are calculated as Mean±SEM of three independent test values, *P<0.05; **P<0.001; ***P<0.0001. […] In these two cell lines, the expression of LOXL1 is not only linearly correlated to transcriptional level, but to LOXL1 protein level, and accomplishing elastin dimer intermediates formation.
(In general: A western blot detects proteins with antibodies after separation by electrophoresis.)

For test [1], the system named is extracellular matrix crosslinking in human fibroblasts. The experiment in a line: ELISA of desmosine and hydroxylproline (elastin and collagen crosslinking) in human fibroblast lines HF1 and HF2. The following applies: different emodin concentrations. As for the experimental part:
Two human fibroblast cell lines integrating PLOXL1-ZsGreen components (HF1 and HF2) are inoculated at a density of 20%, incubated overnight (37° C., 5% CO2). Then, emodin is added into the culture medium. Detect the desmosine by ELISA method to determine the effects of different emodin concentrations to elastin crosslinking. This example determines the effects of different emodin concentrations to collagen crosslinking by detecting the contents of hydroxylproline through ELISA method. […] Thus, emodin promotes the crosslinking of extracellular matrix protein in human fibroblasts widely.
In general terms: ELISA stands for enzyme-linked immunosorbent assay.

The test system of the next test is human LOXL1 promoter. Briefly: PLOXL1-ZsGreen reporter: green fluorescence intensity of human fibroblasts. The method, then:
S3. Drug screening: Inoculate the said human fibroblasts integrating PLOXL1-ZsGreen component into culture medium, incubate overnight. Dissolve the analyte into DMSO as 0.2-2 mg/ml, and dilute into 1:200, then add it into the cell culture medium, and its final concentration will be […]. After incubating overnight (37° C., 5% CO2), detect the green fluorescence intensity of these cells. The screening method of present invention decides if the analyte added stimulates the activity of human LOXL1 promoter effectively, and increases the expression of LOXL1, thus promotes the crosslinking of extracellular matrix protein, by checking if the green fluorescence intensity is increased.
Inoculate the said human fibroblasts integrating PLOXL1-ZsGreen component into culture medium with a density of 20%, keep adherent overnight. […] After culturing overnight (37° C., 5% CO2), detect the green fluorescence intensity of these cells. The present invention decides if the Chinese herbal extracts added stimulate the activity of human LOXL1 promoter effectively by checking if the green fluorescence intensity is increased. […]
Inoculate the said stably expressing human fibroblast strain integrating a expression cassette of PLOXL1-ZsGreen with a 20% density into media, keep adherent overnight (37° C., 5% CO2), detect the green fluorescence intensity of these cells. […]

Test [2] concerns LOXL1 in human skin tissue. The experiment in a line: Real-time and western blot of LOXL1 and elastin monomer/dimer in cultured human skin tissue. As for the experimental part: Emodin was added into the culture medium of human skin tissue. Detect the LOXL1 level in human skin tissue and elastin crosslinking level during 1˜3 days after emodin treatment. Detect the mRNA level and protein level of LOXL1 using Real-time and western blot methods, as well as detecting the amount of monomer and dimer of elastin. Wherein, the control with DMSO solvent added only is normalized to 1, data are calculated as Mean±SEM of three independent test values. *p<0.01, ***P<0.0001.

Structures are written as SMILES.

The values below come from patent US9481915B2, “Method of screening drugs that promote LOXL1 expression” (SHANGHAI TENTH PEOPLE'S HOSPITAL, priority 2012, dated 2016).

For `Cc1cc(O)c2c(c1)C(=O)c1cc(O)cc(O)c1C2=O` [emodin], the “expression of LOXL1 (mRNA and protein)” value is recorded as “significantly promotes the expression of LOXL1” in the test with LOXL1 (HF1 cell line, FIGS. 5a1-5a2) and “significantly promotes the expression of LOXL1” in the test with LOXL1 (HF2 cell line, FIGS. 5b1-5b2). Besides, the “formation of elastin dimer intermediate” value with LOXL1 (HF1 cell line, FIG. 5a3) was “promotion of different emodin concentration to the expression of LOXL1 and the formation of elastin dimer intermediate”; in the test with LOXL1 (HF2 cell line, FIG. 5b3) it was “promotion of different emodin concentration to the expression of LOXL1 and the formation of elastin dimer intermediate”. Also, the “desmosine intermediates (elastin crosslinking)” value in test [1] (HF1, FIG. 6a1) was “increase with the increasing concentrations of emodin added”; in test [1] (HF2, FIG. 6b1), “increase with the increasing concentrations of emodin added”. Also, the “hydroxylproline intermediate (collagen crosslinking)” value was “also increases with the increasing concentrations of emodin added” in test [1] (HF1, FIG. 6a2) and “also increases with the increasing concentrations of emodin added” in test [1] (HF2, FIG. 6b2). In the test on human LOXL1 promoter (Example 4, FIG. 4a, 4 μM emodin), the “activity of human LOXL1 promoter (ZsGreen fluorescent intensity)” value is recorded as “obvious promotion to the activity of human LOXL1 promoter”. Further, the “fluorescent intensity of ZsGreen vs emodin concentration” value with human LOXL1 promoter (Example 4, FIG. 4c, DMSO control normalized to 1) is “increases with the concentration of emodin, with a significant linear relationship”. In test [2] (4 μM emodin, FIG. 7b), the LOXL1 protein level entry is on record as “significantly promotes the LOXL1 protein level”. For the same molecule, the elastin intermediate dimers entry in test [2] (4 μM emodin, FIG. 7c) is “increase of intermediate dimers”. In test [2] (4 μM emodin, FIG. 7c), the elastin monomers entry is “decrease of elastin monomers”. Further, in test [2] (different emodin concentrations, 1-3 days, FIG. 7a), the “LOXL1 mRNA level” value is listed as “increases as the emodin concentration increases”.
